Test results taken from patent US10023579B2, “Pyrrolopyrimidine compounds, use as inhibitors of the kinase LRRK2, and methods for preparation thereof” (Southern Research Institute, priority 2015, dated 2018).

Columns and labels:
[1] = target: T1, G2019S-LRRK2 (recombinant GST-LRRK2 delta970) (Homo sapiens, UniProt Q5S007, G2019S); experiment: LRRK2 kinase assay, G2019S mutant (32P radiometric, peptide substrate); type: biochemical; conditions: G2019S-LRRK2 30 nM, ATP ~52 μM (Km), 30 min at 30° C.
T1 construct: Recombinant GST-LRRK2 (delta970); GST (N); host or cells: baculovirus-infected Sf9 insect cells
T1 sequence (Q5S007 970-2527 G2019S limits assumed): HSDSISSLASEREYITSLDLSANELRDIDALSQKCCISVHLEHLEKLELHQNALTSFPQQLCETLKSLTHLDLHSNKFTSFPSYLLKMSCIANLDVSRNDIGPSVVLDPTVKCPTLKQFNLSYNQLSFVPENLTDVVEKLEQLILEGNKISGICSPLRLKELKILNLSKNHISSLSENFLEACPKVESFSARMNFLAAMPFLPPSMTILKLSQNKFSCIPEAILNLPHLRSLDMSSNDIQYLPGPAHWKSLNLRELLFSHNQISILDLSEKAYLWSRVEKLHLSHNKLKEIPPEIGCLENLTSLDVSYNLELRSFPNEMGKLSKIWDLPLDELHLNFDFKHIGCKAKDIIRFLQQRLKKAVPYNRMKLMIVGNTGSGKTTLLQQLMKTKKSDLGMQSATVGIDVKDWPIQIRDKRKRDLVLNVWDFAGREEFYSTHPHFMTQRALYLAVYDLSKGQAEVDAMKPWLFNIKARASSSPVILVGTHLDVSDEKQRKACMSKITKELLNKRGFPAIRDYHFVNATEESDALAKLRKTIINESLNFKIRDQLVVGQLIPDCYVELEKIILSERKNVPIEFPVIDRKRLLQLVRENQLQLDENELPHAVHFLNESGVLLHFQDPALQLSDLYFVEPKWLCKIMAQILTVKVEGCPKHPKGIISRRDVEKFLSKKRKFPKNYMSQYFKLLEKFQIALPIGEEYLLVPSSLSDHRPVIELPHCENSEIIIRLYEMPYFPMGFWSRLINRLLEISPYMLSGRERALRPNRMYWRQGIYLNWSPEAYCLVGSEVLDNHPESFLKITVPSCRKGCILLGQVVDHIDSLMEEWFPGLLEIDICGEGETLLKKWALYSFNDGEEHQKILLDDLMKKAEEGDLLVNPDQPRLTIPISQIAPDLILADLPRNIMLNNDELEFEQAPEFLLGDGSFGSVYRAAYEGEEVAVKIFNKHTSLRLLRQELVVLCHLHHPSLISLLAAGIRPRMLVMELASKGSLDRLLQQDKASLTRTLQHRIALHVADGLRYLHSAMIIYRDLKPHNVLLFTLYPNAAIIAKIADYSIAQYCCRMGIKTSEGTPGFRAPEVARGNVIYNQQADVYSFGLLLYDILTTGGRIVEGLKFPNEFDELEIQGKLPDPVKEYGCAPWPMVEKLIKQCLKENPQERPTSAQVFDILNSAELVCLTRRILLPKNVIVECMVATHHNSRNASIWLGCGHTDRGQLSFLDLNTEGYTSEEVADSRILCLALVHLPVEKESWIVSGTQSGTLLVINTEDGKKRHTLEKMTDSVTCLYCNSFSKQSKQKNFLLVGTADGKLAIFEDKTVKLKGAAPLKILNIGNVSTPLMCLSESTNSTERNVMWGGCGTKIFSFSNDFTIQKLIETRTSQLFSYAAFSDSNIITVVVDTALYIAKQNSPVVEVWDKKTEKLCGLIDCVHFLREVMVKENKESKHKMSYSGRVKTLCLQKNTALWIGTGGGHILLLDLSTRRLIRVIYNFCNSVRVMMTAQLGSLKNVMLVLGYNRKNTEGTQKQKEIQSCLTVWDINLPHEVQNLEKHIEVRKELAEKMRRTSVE
Protocol: (§1) Compounds were assessed for inhibition of LRRK2 inhibition using the following procedure. Recombinant GST-LRRK2 (delta970) purified from baculovirus infected insect cells (SF9), at least 90% pure and either wild-type sequence or bearing the pathogenic G2019S mutation, was combined into a kinase buffer at 30 nM concentration. Kinase buffer consists of 50 mM Tris HCl pH 7.4, 1 mM EDTA, and 50 μM peptide substrate (amino acid sequence […]). Experimental compounds or control (no compound) were added at desired concentrations in DMSO and water, where final concentration of DMSO in kinase reactions was 0.1% for all drug concentrations. […] Reactions were incubated at 1400 RPM at 30° C. for 30 min. and then spotted in triplicate directly onto a slot-blot apparatus fitted with phospho-cellulose paper and allowed to dry. Each slot was then washed with 10 mM phosphoric acid buffer until beta-radiation could not be detected in eluted wash buffer, usually ˜1 mL per slot. Paper within each slot were excised and radiation measured by liquid scintillation.

[2] = target: T2, WT-LRRK2 (recombinant GST-LRRK2 delta970) (Homo sapiens, UniProt Q5S007); experiment: LRRK2 kinase assay, wild type (32P radiometric, peptide substrate); type: biochemical; conditions: WT-LRRK2 30 nM, ATP ~92 μM (Km), 30 min at 30° C.
T2 construct: Recombinant GST-LRRK2 (delta970); GST (N); host or cells: baculovirus-infected Sf9 insect cells
T2 sequence (Q5S007 970-2527 limits assumed): as the sequence (Q5S007 970-2527 G2019S limits assumed) above, with S1050G counted along it
Protocol: as §1

IC50 [1]: 0.043 µM
IC50 [2]: 0.042 µM
SMILES: Cc1c(Nc2nc(N[C@@H](C)C3CCCCC3)c3cc[nH]c3n2)cnn1C(C)C [Compound 25, (S)-N4-(1-cyclohexylethyl)-N2-(1-isopropyl-5-methyl-1H-pyrazol-4-yl)-7H-pyrrolo[2,3-d]pyrimidine-2,4-diamine]
